# Key:
# [1] = test system: duck salad; assay: Test B flood test duck salad; type: in vivo, Heteranthera limosa
# How it was run: (§1)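 Each value is a visual injury score relative to controls, with 10 meaning complete control and 0 no effect. Evaluation took place twelve to sixteen days after the 2-leaf-stage plants were treated and kept in the greenhouse.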
# [2] = test system: smallflower flatsedge; assay: Test B flood test smallflower flatsedge; type: in vivo, Cyperus difformis
# How it was run: as §1
# [3] = test system: soybean; assay: Test B pre/postemergence soybean; type: in vivo, Glycine max
# How it was run: (§2)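 Herbicidal effect was estimated by eye on a ten-point control scale after plants spent twelve to sixteen days in a greenhouse following soil or foliar treatment. Foliar sprays targeted plants at one to four leaves; all doses were formulated in a non-phytotoxic solvent with surfactant.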
# [4] = test system: sugar beet; assay: Test B pre/postemergence sugar beet; type: in vivo, Beta vulgaris
# How it was run: as §2
# [5] = test system: wild oat; assay: Test B pre/postemergence wild oat; type: in vivo, Avena fatua
# How it was run: as §2
# [6] = test system: cocklebur; assay: Test B pre/postemergence cocklebur; type: in vivo, Xanthium strumarium
# How it was run: as §2
# [7] = test system: velvetleaf; assay: Test B pre/postemergence velvetleaf; type: in vivo, Abutilon theophrasti
# How it was run: as §2
# [8] = test system: morningglory; assay: Test B pre/postemergence morningglory; type: in vivo, Ipomoea hederacea
# How it was run: as §2
# [9] = test system: corn; assay: Test B pre/postemergence corn; type: in vivo, Zea mays
# How it was run: as §2
# [10] = test system: purple nutsedge; assay: Test B pre/postemergence purple nutsedge; type: in vivo, Cyperus rotundus
# How it was run: as §2
# [11] = test system: blackgrass; assay: Test B pre/postemergence blackgrass; type: in vivo, Alopecurus myosuroides
# How it was run: as §2
# [12] = test system: rape; assay: Test B pre/postemergence rape; type: in vivo, Brassica napus
# How it was run: as §2
# [13] = test system: crabgrass; assay: Test B pre/postemergence crabgrass; type: in vivo, Digitaria sanguinalis
# How it was run: as §2
# [14] = test system: surinam grass; assay: Test B pre/postemergence surinam grass; type: in vivo, Brachiaria decumbens
# How it was run: as §2
# [15] = test system: giant foxtail; assay: Test B pre/postemergence giant foxtail; type: in vivo, Setaria faberii
# How it was run: as §2
# [16] = test system: wheat; assay: Test B pre/postemergence wheat; type: in vivo, Triticum aestivum
# How it was run: as §2
# [17] = Postemergence, Rate 62 g/ha, scale 0 to 10, 0 is no effect, 10 is complete control
# [18] = Rate 125 g/ha, Postemergence section (flood test species), scale 0 to 10, 0 no effect, 10 complete control
# [19] = flood test, listed under Postemergence, Rate 250 g/ha, scale 0 to 10, 0 no effect, 10 complete control
# [20] = Postemergence, Rate 250 g/ha, scale 0 to 10, 0 no effect, 10 complete control
# [21] = Preemergence, Rate 62 g/ha, scale 0 to 10, 0 is no effect, 10 is complete control
# [22] = Preemergence, Rate 125 g/ha, scale 0 to 10 (0 no effect, 10 complete control)
# [23] = Preemergence, Rate 250 g/ha, scale of 0 to 10 where 0 is no effect and 10 is complete control
# [24] = Preemergence, Rate 500 g/ha, scale 0 (no effect) to 10 (complete control)
# [25] = Rate 125 g/ha, Postemergence, scale 0 to 10, 0 no effect, 10 complete control
# [26] = Rate 500 g/ha, Postemergence, 0 to 10 scale (0 no effect, 10 complete control)
structure (smiles),measurement,setting,value
CC(C)N(C(=O)n1oc(=O)n(-c2cc(Cl)ccc2Cl)c1=O)c1ccc(F)cc1 [Compound 16],Ducksalad plant response rating,[1]; [17],0
same,Ducksalad plant response rating,[1]; [18],0
same,Ducksalad plant response rating,"[1]; Rate 500 g/ha, Postemergence section of Table B, 0 to 10 scale (0 no effect, 10 complete control)",0
same,Ducksalad plant response rating,[1]; [19],0
same,S. Flatsedge plant response rating,[2]; [17],0
same,S. Flatsedge plant response rating,[2]; [18],0
same,S. Flatsedge plant response rating,[2]; [19],0
same,Soybean plant response rating,[3]; [17],1
same,Soybean plant response rating,[3]; [20],1
same,"Plant response rating, Soybean",[3]; [21],0
same,"Plant response rating, Soybean",[3]; [22],0
same,"Plant response rating, Soybean",[3]; [23],0
same,Soybean plant response rating,[3]; [24],0
same,Soybean plant response rating,[3]; [25],1
same,Sugarbeets plant response rating,[4]; [17],0
same,Sugarbeets plant response rating,[4]; [20],0
same,"Plant response rating, Sugarbeets",[4]; [21],0
same,"Plant response rating, Sugarbeets",[4]; [22],0
same,"Plant response rating, Sugarbeets",[4]; [23],0
same,Sugarbeets plant response rating,[4]; [24],0
same,Sugarbeets plant response rating,[4]; [25],0
same,Wild oats plant response rating,[5]; [17],0
same,Wild oats plant response rating,[5]; [20],0
same,"Plant response rating, Wild oats",[5]; [22],0
same,"Plant response rating, Wild oats",[5]; [23],0
same,Wild oats plant response rating,[5]; [24],0
same,Wild oats plant response rating,[5]; [25],0
same,Cocklebur plant response rating,[6]; [17],0
same,Cocklebur plant response rating,[6]; [20],0
same,"Plant response rating, Cocklebur",[6]; [21],0
same,"Plant response rating, Cocklebur",[6]; [22],0
same,"Plant response rating, Cocklebur",[6]; [23],0
same,Cocklebur plant response rating,[6]; [24],0
same,Cocklebur plant response rating,[6]; [25],0
same,Cocklebur plant response rating,[6]; [26],0
same,Velvetleaf plant response rating,[7]; [17],0
same,Velvetleaf plant response rating,[7]; [20],0
same,"Plant response rating, Velvetleaf",[7]; [21],0
same,"Plant response rating, Velvetleaf",[7]; [22],0
same,"Plant response rating, Velvetleaf",[7]; [23],0
same,Velvetleaf plant response rating,[7]; [24],0
same,Velvetleaf plant response rating,[7]; [25],0
same,Morningglory plant response rating,[8]; [17],1
same,Morningglory plant response rating,[8]; [20],1
same,"Plant response rating, Morningglory",[8]; [21],0
same,"Plant response rating, Morningglory",[8]; [22],0
same,"Plant response rating, Morningglory",[8]; [23],0
same,Morningglory plant response rating,[8]; [24],0
same,Morningglory plant response rating,[8]; [25],1
same,Morningglory plant response rating,[8]; [26],3
same,Corn plant response rating,[9]; [17],0
same,Corn plant response rating,[9]; [20],0
same,"Plant response rating, Corn",[9]; [21],0
same,"Plant response rating, Corn",[9]; [22],0
same,"Plant response rating, Corn",[9]; [23],0
same,Corn plant response rating,[9]; [24],0
same,Corn plant response rating,[9]; [25],0
same,Corn plant response rating,[9]; [26],0
same,Nutsedge plant response rating,[10]; [17],0
same,Nutsedge plant response rating,[10]; [20],0
same,"Plant response rating, Nutsedge",[10]; [21],0
same,"Plant response rating, Nutsedge",[10]; [22],0
same,"Plant response rating, Nutsedge",[10]; [23],0
same,Nutsedge plant response rating,[10]; [24],0
same,Nutsedge plant response rating,[10]; [25],0
same,Nutsedge plant response rating,[10]; [26],0
same,Blackgrass plant response rating,[11]; [17],0
same,Blackgrass plant response rating,[11]; [20],0
same,"Plant response rating, Blackgrass",[11]; [21],0
same,"Plant response rating, Blackgrass",[11]; [22],0
same,"Plant response rating, Blackgrass",[11]; [23],0
same,Blackgrass plant response rating,[11]; [24],0
same,Blackgrass plant response rating,[11]; [25],0
same,Blackgrass plant response rating,[11]; [26],2
same,Rape plant response rating,[12]; [17],0
same,Rape plant response rating,[12]; [20],0
same,"Plant response rating, Rape",[12]; [21],0
same,"Plant response rating, Rape",[12]; [22],0
same,"Plant response rating, Rape",[12]; [23],0
same,Rape plant response rating,[12]; [24],0
same,Rape plant response rating,[12]; [25],0
same,Rape plant response rating,[12]; [26],0
same,Crabgrass plant response rating,[13]; [17],0
same,Crabgrass plant response rating,[13]; [20],0
same,"Plant response rating, Crabgrass",[13]; [21],0
same,"Plant response rating, Crabgrass",[13]; [22],2
same,"Plant response rating, Crabgrass",[13]; [23],2
same,Crabgrass plant response rating,[13]; [24],2
same,Crabgrass plant response rating,[13]; [25],0
same,Crabgrass plant response rating,[13]; [26],0
same,B. signalgrass plant response rating,[14]; [17],0
same,B. signalgrass plant response rating,[14]; [20],0
same,"Plant response rating, B. signalgrass",[14]; [21],0
same,"Plant response rating, B. signalgrass",[14]; [22],0
same,"Plant response rating, B. signalgrass",[14]; [23],0
same,B. signalgrass plant response rating,[14]; [24],0
same,B. signalgrass plant response rating,[14]; [25],0
same,B. signalgrass plant response rating,[14]; [26],0
same,Giant foxtail plant response rating,[15]; [17],0
same,Giant foxtail plant response rating,[15]; [20],0
same,"Plant response rating, Giant foxtail",[15]; [21],0
same,"Plant response rating, Giant foxtail",[15]; [22],2
same,"Plant response rating, Giant foxtail",[15]; [23],3
same,Giant foxtail plant response rating,[15]; [24],8
same,Giant foxtail plant response rating,[15]; [25],0
same,Giant foxtail plant response rating,[15]; [26],3
same,Wheat plant response rating,[16]; [17],0
same,Wheat plant response rating,[16]; [20],0
same,"Plant response rating, Wheat",[16]; [21],0
same,"Plant response rating, Wheat",[16]; [22],0
same,"Plant response rating, Wheat",[16]; [23],0
same,Wheat plant response rating,[16]; [24],0
same,Wheat plant response rating,[16]; [25],0
